Test results taken from patent publication US9737504B2, “Dihydroorotic and acid dehydrogenase inhibitor” (NAI INC., priority 2012, dated 2017).
Where two headings read alike, the source gives them in different places.

Key:
NCI-H522 = assay: JFCR39 cancer cell growth inhibition test, NCI-H522; assay type: cell-based; conditions: Homo sapiens; NCI-H522, Lu (Lung)
HBC-5 = assay: JFCR39 cancer cell growth inhibition test, HBC-5; assay type: cell-based; conditions: Homo sapiens, HBC5; HBC-5, Br (Breast)
DMS273 = assay: JFCR39 cancer cell growth inhibition test, DMS273; assay type: cell-based; conditions: Homo sapiens, DMS-273; DMS273, Lu (Lung)
OVCAR-5 = assay: JFCR39 cancer cell growth inhibition test, OVCAR-5; assay type: cell-based; conditions: Homo sapiens; OVCAR-5, Ov (Ovarian)
DMS114 = assay: JFCR39 cancer cell growth inhibition test, DMS114; assay type: cell-based; conditions: Homo sapiens, DMS-114; DMS114, Lu (Lung)
L0X-IMVI = assay: JFCR39 cancer cell growth inhibition test, L0X-IMVI; assay type: cell-based; conditions: Homo sapiens, Me (Melanoma)
RXF-631L = assay: JFCR39 cancer cell growth inhibition test, RXF-631L; assay type: cell-based; conditions: Homo sapiens, Re (Renal)
PC-3 = assay: JFCR39 cancer cell growth inhibition test, PC-3; assay type: cell-based; conditions: Homo sapiens; PC-3, xPg (Prostate)
HCT-116 = assay: JFCR39 cancer cell growth inhibition test, HCT-116; assay type: cell-based; conditions: Homo sapiens; HCT-116, Co (Colon)
HCT-15 = assay: JFCR39 cancer cell growth inhibition test, HCT-15; assay type: cell-based; conditions: Homo sapiens; HCT-15, Co (Colon)
human DHOD = human DHOD (Homo sapiens, UniProt Q02127); assay: Measurement of DHOD inhibitory activity (DCIP reduction, end point assay); assay type: biochemical; conditions: read-out: DHOD inhibition rate (%) 100 nM; 100 nM compound
human DHOD, sequence (Q02127 whole entry): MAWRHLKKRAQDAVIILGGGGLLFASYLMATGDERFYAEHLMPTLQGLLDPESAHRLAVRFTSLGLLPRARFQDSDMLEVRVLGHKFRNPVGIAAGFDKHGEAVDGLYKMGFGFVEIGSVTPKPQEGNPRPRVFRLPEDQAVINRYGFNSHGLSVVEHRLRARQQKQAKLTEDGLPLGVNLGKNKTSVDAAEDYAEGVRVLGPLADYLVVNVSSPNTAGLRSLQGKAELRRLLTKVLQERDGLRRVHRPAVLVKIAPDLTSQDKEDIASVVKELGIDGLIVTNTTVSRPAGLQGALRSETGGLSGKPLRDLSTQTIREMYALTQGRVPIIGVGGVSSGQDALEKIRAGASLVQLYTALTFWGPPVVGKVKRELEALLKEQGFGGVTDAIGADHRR

U251 = assay: JFCR39 cancer cell growth inhibition test, U251; assay type: cell-based; conditions: Homo sapiens, U-251; U251, CNS (Central Nervous Systems)
SK-OV-3 = assay: JFCR39 cancer cell growth inhibition test, SK-OV-3; assay type: cell-based; conditions: Homo sapiens; SK-OV-3, Ov (Ovarian)
MKN74 = assay: JFCR39 cancer cell growth inhibition test, MKN74; assay type: cell-based; conditions: Homo sapiens, MKN-74; MKN74, St (Stomac)
A549 = assay: JFCR39 cancer cell growth inhibition test, A549; assay type: cell-based; conditions: Homo sapiens; A549, Lu (Lung)
MCF-7 = assay: JFCR39 cancer cell growth inhibition test, MCF-7; assay type: cell-based; conditions: Homo sapiens, MCF7; MCF-7, Br (Breast)
DU-145 = assay: JFCR39 cancer cell growth inhibition test, DU-145; assay type: cell-based; conditions: Homo sapiens; DU-145, xPg (Prostate)
OVCAR-8 = assay: JFCR39 cancer cell growth inhibition test, OVCAR-8; assay type: cell-based; conditions: Homo sapiens; OVCAR-8, Ov (Ovarian)
MKN28 = assay: JFCR39 cancer cell growth inhibition test, MKN28; assay type: cell-based; conditions: Homo sapiens, MKN-28; MKN28, St (Stomac)
SNB-75 = assay: JFCR39 cancer cell growth inhibition test, SNB-75; assay type: cell-based; conditions: Homo sapiens; SNB-75, CNS (Central Nervous Systems)
MKN1 = assay: JFCR39 cancer cell growth inhibition test, MKN1; assay type: cell-based; conditions: Homo sapiens, MKN-1; MKN1, St (Stomac)
MKN7 = assay: JFCR39 cancer cell growth inhibition test, MKN7; assay type: cell-based; conditions: Homo sapiens, MKN-7; MKN7, St (Stomac)
SF-295 = assay: JFCR39 cancer cell growth inhibition test, SF-295; assay type: cell-based; conditions: Homo sapiens; SF-295, CNS (Central Nervous Systems)
MDA-MB-231 = assay: JFCR39 cancer cell growth inhibition test, MDA-MB-231; assay type: cell-based; conditions: Homo sapiens; MDA-MB-231, Br (Breast)
OVCAR-3 = assay: JFCR39 cancer cell growth inhibition test, OVCAR-3; assay type: cell-based; conditions: Homo sapiens; OVCAR-3, Ov (Ovarian)
HT-29 = assay: JFCR39 cancer cell growth inhibition test, HT-29; assay type: cell-based; conditions: Homo sapiens; HT-29, Co (Colon)
NCI-H23 = assay: JFCR39 cancer cell growth inhibition test, NCI-H23; assay type: cell-based; conditions: Homo sapiens; NCI-H23, Lu (Lung)
BSY-1 = assay: JFCR39 cancer cell growth inhibition test, BSY-1; assay type: cell-based; conditions: Homo sapiens; BSY-1, Br (Breast)
NCI-H460 = assay: JFCR39 cancer cell growth inhibition test, NCI-H460; assay type: cell-based; conditions: Homo sapiens; NCI-H460, Lu (Lung)
HCC2998 = assay: JFCR39 cancer cell growth inhibition test, HCC2998; assay type: cell-based; conditions: Homo sapiens, HCC 2998; HCC2998, Co (Colon)
[1] = system: Panc-1 cells (human pancreatic cells); assay: Inhibitory effect on Panc-1 cells, control vs hypoxic and subnutritional conditions; assay type: cell-based; conditions: for IC50: Homo sapiens
Description: For these reasons, cells of colorectal and pancreatic cancers, each being regarded as intractable, were used to test the inhibitory effect of compounds under hypoxic and subnutritional conditions. Moreover, the same test was also performed on normal skin cells.
The cells used were two types of cancer cells, i.e., DLD-1 cells (human colorectal cancer cells) and Panc-1 cells (human pancreatic cells), as well as HDF cells (human dermal fibroblast cells). Culture conditions were set as follows: 21% oxygen with glucose and […] (10% FBS) for the control group, and 1% oxygen without glucose and […] (10% FBS) for the hypoxic and subnutritional group. The results obtained are shown in Tables 3, 4 and 5, as well as FIGS. 1, 2 and 3.

SF-268 = assay: JFCR39 cancer cell growth inhibition test, SF-268; assay type: cell-based; conditions: Homo sapiens; SF-268, CNS (Central Nervous Systems)
NCI-H226 = assay: JFCR39 cancer cell growth inhibition test, NCI-H226; assay type: cell-based; conditions: Homo sapiens; NCI-H226, Lu (Lung)
St-4 = assay: JFCR39 cancer cell growth inhibition test, St-4; assay type: cell-based; conditions: Homo sapiens; St-4, St (Stomac)
HBC-4 = assay: JFCR39 cancer cell growth inhibition test, HBC-4; assay type: cell-based; conditions: Homo sapiens, HBC4; HBC-4, Br (Breast)
OVCAR-4 = assay: JFCR39 cancer cell growth inhibition test, OVCAR-4; assay type: cell-based; conditions: Homo sapiens; OVCAR-4, Ov (Ovarian)

C/C(=C\Cc1c(O)c(Cl)c(C)c(C=O)c1O)CC/C=C(\C)[C@@H]1CC(=O)C(C)(C)O1 (racemic) [Ascofuranone, dl-5-Chloro-2,4-dihydroxy-6-methyl-3-[(2E,6E)-3-methyl-7-(3,3-dimethyl-4-oxo-2-oxacyclopentyl)-2,6-octadienyl]benzaldehyde]
GI50 (NCI-H522): 8.4 µM
GI50 (HBC-5): 28 µM
GI50 (DMS273): 5.9 µM
GI50 (OVCAR-5): 7.6 µM
GI50 (DMS114): 19 µM
GI50 (L0X-IMVI): 2.8 µM
GI50 (RXF-631L): 12 µM
GI50 (PC-3): 13 µM
GI50 (HCT-116): 5.1 µM
GI50 (HCT-15): 1.3 µM
inhibition at 0.1 µM (human DHOD): 95%
GI50 (U251): 1.5 µM
GI50 (SK-OV-3): 13 µM
GI50 (MKN74): 13 µM
GI50 (A549): 7.6 µM
GI50 (MCF-7): 9 µM
GI50 (DU-145): 11 µM
GI50 (OVCAR-8): 9.5 µM
GI50 (MKN28): 9.7 µM
GI50 (SNB-75): 23 µM
GI50 (MKN1): 14 µM
GI50 (MKN7): 15 µM
GI50 (SF-295): 5.3 µM
GI50 (MDA-MB-231): 7.4 µM
GI50 (OVCAR-3): 8 µM
GI50 (HT-29): 6.6 µM
GI50 (NCI-H23): 15 µM
GI50 (BSY-1): 16 µM
GI50 (NCI-H460): 2 µM
GI50 (HCC2998): 17 µM
IC50 ([1]; read-out: IC50 [μM] 1% O2 glc(−)gln(−), Panc-1, 1% O2 glc(−)gln(−)): 1.4 µM
IC50 ([1]; Panc-1, 21% O2 glc(+)gln(+), read-out: IC50 [μM] 21% O2 glc(+)gln(+)): > 100 µM
Selectivity = 21% glc(+)gln(+) IC50/1% glc(−)gln(−) IC50 ([1]; Panc-1): >71
GI50 (SF-268): 7 µM
GI50 (NCI-H226): 15 µM
GI50 (St-4): 14 µM
GI50 (HBC-4): 9.1 µM
GI50 (OVCAR-4): 5.9 µM
